Series [1] can be described thus: AUC (0 to t) in Sprague-Dawley rat at 50 mg/kg, po by LC-MS/MS analysis. Format: ADME, organism-based. As to conditions: in vivo.
Series [2] is described as follows: MRT (0 to infinity) in Sprague-Dawley rat at 5 mg/kg, iv by LC-MS/MS analysis. Format: ADME, organism-based. Particulars: in vivo.
Series [3] has as its system CWR22R. As to the kind of experiment: Downregulation of FKBP5 mRNA expression in human 22Rv1 cells at 10 uM incubated for 24 hrs by qRT-PCR analysis. It counts as functional, cell-based. A general note: In qPCR the cycle at which signal appears reflects the starting amount.
For series [4], the system named is CWR22R. As to the kind of experiment: Downregulation of ACSL3 mRNA expression in human 22Rv1 cells at 10 uM incubated for 24 hrs by qRT-PCR analysis. Format: functional, cell-based.
Series [5] deals with CWR22R. Kind of series: cells. Particulars: Homo sapiens, 22Rv1, 48 h. Format: functional, cell-based.
Description: Antiproliferative activity against AR/AR-V7 positive human 22Rv1 cells assessed as inhibition of cell growth incubated for 48 hrs by CCK-8 assay
Series [6] relates to CWR22R. As to the kind of experiment: Antitumor activity against human 22Rv1 cells xenografted in NSG mouse assessed as decrease in AR level in tumor at 10 mg/kg, IG administered once daily for 3 days by […] based analysis. It counts as functional, organism-based. As to conditions: time 3.0 day. On the technique in general: A xenograft is tissue or cells of one species grown in another, often human tumour cells in immunodeficient mice.

The subject of series [7] is CWR22R. Kind of series: Antitumor activity against human 22Rv1 cells xenografted in NSG mouse assessed as decrease in AR-V7 level in tumor at 10 mg/kg, IG administered once daily for 3 days by […] based analysis. Format: functional, organism-based. As to conditions: time 3.0 day.
Series [8] in a line: AUC (0 to t) in Sprague-Dawley rat at 5 mg/kg, iv by LC-MS/MS analysis. Format: ADME, organism-based. As to conditions: in vivo.
A short description of series [9]: MRT (0 to infinity) in Sprague-Dawley rat at 50 mg/kg, po by LC-MS/MS analysis. Format: ADME, organism-based. Particulars: in vivo.
Series [10] deals with CWR22R. As to the kind of experiment: Downregulation of ABHD2 mRNA expression in human 22Rv1 cells at 10 uM incubated for 24 hrs by qRT-PCR analysis. Format: functional, cell-based.
The nature of series [11]: Stability in mouse plasma assessed as half life measured after 60 mins. Format: ADME, cell-free.
Series [12] is described as follows: Half life in Sprague-Dawley rat at 50 mg/kg, po by LC-MS/MS analysis. Format: ADME, organism-based. As to conditions: in vivo.
The subject of series [13] is CWR22R. Kind of series: Downregulation of NCAPD3 mRNA expression in human 22Rv1 cells at 10 uM incubated for 24 hrs by qRT-PCR analysis. Format: functional, cell-based.
The subject of series [14] is CWR22R. Kind of series: Downregulation of STEAP4 mRNA expression in human 22Rv1 cells at 10 uM incubated for 24 hrs by qRT-PCR analysis. It counts as functional, cell-based.
The target of series [15] is T1, Androgen receptor (Homo sapiens) (UniProt P10275).
T1 sequence (whole entry): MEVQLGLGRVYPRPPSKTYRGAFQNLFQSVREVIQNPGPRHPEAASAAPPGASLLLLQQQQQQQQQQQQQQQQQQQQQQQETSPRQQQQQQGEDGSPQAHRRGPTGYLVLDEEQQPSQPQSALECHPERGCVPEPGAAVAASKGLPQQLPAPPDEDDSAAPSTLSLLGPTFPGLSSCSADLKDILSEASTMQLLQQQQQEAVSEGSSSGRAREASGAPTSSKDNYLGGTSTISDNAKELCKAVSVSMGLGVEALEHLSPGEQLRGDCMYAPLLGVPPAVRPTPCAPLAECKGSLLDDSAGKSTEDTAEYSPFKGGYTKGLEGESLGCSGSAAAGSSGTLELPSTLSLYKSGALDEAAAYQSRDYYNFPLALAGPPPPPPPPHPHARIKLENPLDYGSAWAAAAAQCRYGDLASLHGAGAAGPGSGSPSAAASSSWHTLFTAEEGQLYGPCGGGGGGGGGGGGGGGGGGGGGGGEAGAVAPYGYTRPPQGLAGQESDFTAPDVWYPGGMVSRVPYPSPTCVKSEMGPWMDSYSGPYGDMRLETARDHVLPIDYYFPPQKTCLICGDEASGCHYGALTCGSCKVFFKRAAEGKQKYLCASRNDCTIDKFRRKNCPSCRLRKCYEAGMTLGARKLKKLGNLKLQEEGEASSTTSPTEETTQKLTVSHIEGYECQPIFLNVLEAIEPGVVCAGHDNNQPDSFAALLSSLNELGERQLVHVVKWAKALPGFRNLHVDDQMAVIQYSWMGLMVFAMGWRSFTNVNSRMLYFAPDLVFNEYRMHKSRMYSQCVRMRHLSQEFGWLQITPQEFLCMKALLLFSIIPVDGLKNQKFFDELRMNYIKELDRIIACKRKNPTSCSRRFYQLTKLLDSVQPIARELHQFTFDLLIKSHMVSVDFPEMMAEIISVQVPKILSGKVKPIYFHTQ
As to the kind of experiment: Induction of AR degradation in human 22Rv1 cells at 20 uM incubated for 24 hrs in presence of Bortezomib by Western blot analysis. It counts as cell-based. Background: Immunoblotting shows a protein as a band on a membrane.

In series [16] the test system is CWR22R. Kind of series: Downregulation of PEG3 mRNA expression in human 22Rv1 cells at 10 uM incubated for 24 hrs by qRT-PCR analysis. It counts as functional, cell-based.
The subject of series [17] is CWR22R. Kind of series: Drug localization in nucleus of human 22Rv1 cells at 5 uM incubated for 24 hrs by DAPI staining based immunofluorescence analysis. Format: functional, cell-based.

The source made the active and inactive calls. The rule behind the calls is not given here.

`CC1(C)C(=O)N(c2ccc(C#N)c(C(F)(F)F)c2)C(=O)N1CCNc1ccc(F)c2ncccc12`: the figures for the AUC(0-t) in series [1] and in series [8] were 3060 ng·h/mL and 2870 ng·h/mL, respectively. In series [2], the MRT came out at 4.1 h. Besides, the outcome in series [3], in series [4], in series [6], in [7], in series [10] and in [13] was Active. The outcome in [14], in series [15], in series [16] and in series [17] was Active. In addition, in series [5], inhibition was half-maximal at 900 nM (IC50). The molecule further had a mean residence time (MRT inf) in [9] of 4.1 h. Besides, the half-life was 4.78 h in series [11] and 2.2 h in series [12].

By AUC(0-t) is commonly meant exposure summed from dosing to a finite time, without extrapolation to infinity. High values mean high exposure, low ones low exposure. By MRT is commonly meant a mean duration of stay, worked out from the concentration-time curve. Broadly, the IC50 is the concentration needed to halve the response being measured. A higher IC50 goes with weaker potency in that assay. What is called MRT inf is the average time that molecules of a dose stay in the body. In general, half-life refers to how long it takes for the measured level to halve.

(Values after ChEMBL document CHEMBL5518238, “Structure-Activity Relationship (SAR) Studies of Novel Monovalent AR/AR-V7 Dual Degraders with Potent Efficacy against Advanced Prostate Cancer” (J Med Chem, 2024).)
